Reference: paper PMC4230943, “Mimicking Hypoxia to Treat Anemia: HIF-Stabilizer BAY 85-3934 (Molidustat) Stimulates Erythropoietin Production without Hypertensive Effects” (PLoS ONE, 2014)

What was measured:
[1] = biological target: T1, PHD2 (Homo sapiens, UniProt Q9GZT9); assay: Prolyl hydroxylase assay (Eu-VBC binding to hydroxylated HIF-1α 556–574 peptide); format: biochemical
T1 construct: made in house; host or cells: Sf9 insect cells (baculovirus, pBacPAC transfer vectors)
Experimental: DELFIA labeling reagent (PerkinElmer) was used to label purified VBC complex with europium according to the manufacturer’s instructions.
The prolyl hydroxylase assay was performed as described previously [32] with minor modifications. […] The immobilized peptide substrate was incubated with the appropriate amount of HIF-PH in buffer containing 20 mM Tris (pH 7.5), 5 mM KCl, 1.5 mM MgCl2, 20 µM 2-oxoglutarate, 10 µM FeSO4, 2 mM ascorbate, 4% protease inhibitors without EDTA (Roche Diagnostics) in a final volume of 100 µl, with or without test compound added at appropriate concentrations. The reaction time was 60 min. To stop the reaction, plates were washed three times with wash buffer.
Hydroxylated biotinyl-HIF-1α 556–574 was incubated with Eu-VBC in 100 µl binding buffer (50 mM Tris [pH 7.5], 120 mM NaCl) for 60 min at room temperature. After washing six times with DELFIA wash buffer (PerkinElmer) and adding 100 µl enhancer solution (PerkinElmer), the amount of bound VBC was determined by measuring time-resolved fluorescence with a Tecan infinite M200 plate reader. Measurements were taken in triplicate or more, and results were expressed as means ± SEM. IC50 values were determined after curve fitting using GraphPad Prism software (GraphPad Software, La Jolla, CA, USA) applying the four-parameter logistic equation to the data sets.
To measure the activity of HIF-PH inhibitors quantitatively, a microplate assay was developed that employed the interaction of the VBC complex with the peptide HIF-1α 556–574 after being hydroxylated at proline 564 by recombinant HIF-PH. Activity of the recombinant enzyme was dependent on the concentrations of several cofactors, 2-oxoglutarate, Fe^2+, and ascorbate, in the reaction mixture.

[2] = test system: HIF-1α and HIF-2α; assay: Western blot detection of HIF stabilization in HeLa, A549 and Hep3B cells; format: cell-based, human; settings: for induction threshold of detectable HIF: 2 h exposure
Experimental: (§1) A549 and HeLa carcinoma cell lines (American Type Culture Collection) were cultured in DMEM/F-12 (Gibco), and Hep3B cells in RPMI medium, both supplemented with antibiotics, L-glutamine and 10% fetal calf serum. A549 cells stably transfected with the HIF-RE2-luc HIF reporter construct (constructed in pGL3, Promega GmbH) were seeded on 384-well plates (Greiner) at a density of 2500 cells/well in a volume of 25 µl complete cell culture medium, and re-incubated for 16–24 h before the test. Test compounds were added at appropriate dilutions in a volume of 10 µl, and cells were re-incubated for 6 h before measurement. Luciferase activity was determined in a luminometer after addition of cell lysis/luciferase buffer. Cell line identities were verified by STR DNA typing (DSMZ GmbH).
For western blot analysis, cell lysates were separated on 4–12% SDS polyacrylamide gradient gels (Invitrogen). Proteins were blotted onto polyvinylidene difluoride (PVDF) membranes (Amersham Biosciences). HIF-1α protein was detected using a HIF-1α specific monoclonal antibody (BD Transduction Laboratories) at a dilution of 1∶250. HIF-2α protein was detected using a HIF-2α specific polyclonal antibody (Novus Biologicals) at a dilution of 1∶1000. Anti-β-actin antibody served as a loading control. […] Novex Sharp Pre-stained Protein Standard (Invitrogen) was used as molecular weight marker.
It was further explored whether inhibition of HIF-PHs would result in the stabilization of HIFs. Exposure of three different human cell lines (HeLa, A549, and Hep3B) to concentrations of BAY 85-3934 up to 10 µM for 2 h led to dose-dependent increases in both HIF-1α and HIF-2α. Within the individual cell lines, there was no difference between the HIF isoforms with regard to the threshold concentration of BAY 85-3934 that was necessary for the induction of detectable amounts of HIF. […] Exposure of HeLa cells to 5 µM BAY 85-3934 for 20 min was sufficient to induce detectable concentrations of HIF-1α (Fig. 1E). After exposure of A549 cells to 20 µM BAY 85-3934 for 120 min, with subsequent withdrawal of the culture medium and replacement with medium containing 100 µM cycloheximide (an inhibitor of protein synthesis), induction of HIF-1α was no longer detectable after 30 min (Fig. 1F). Therefore, it can be ruled out that disappearance of HIF-1α was the result of de novo synthesis of […].

[3] = test system: A549 cells stably transfected with the HIF-RE2-luc HIF reporter construct; assay: Luciferase reporter assay in A549 HIF-RE2 reporter cells; format: cell-based, human
Experimental: as §1
As in the enzymatic assay, and in contrast to experiments with iron-chelating agents (data not shown), luciferase activity was not altered by a high concentration of Fe^2+ (50 µM) in the culture medium (Fig. 1G). The high IC50 value observed corresponds well to the low sensitivity of A549 cells shown by western blot analysis.

[4] = test system: male Wistar rats; assay: Time-course of kidney mRNA expression (EPO, HIF target genes) and plasma EPO after a single dose; format: in vivo, rat
Experimental: Male Wistar rats (240–340 g in body weight) were housed with five animals per cage for at least 1 week before experimentation. Blood samples from rats were collected under anesthesia (2% isoflurane in air) by puncturing the retro-orbital vein plexus with a glass capillary. In a repeat-dose, 26-day experiment, animals were administered vehicle or BAY 85-3934 at doses of 0.5 mg/kg, 1.25 mg/kg, 2.5 mg/kg, and 5 mg/kg. PCV was determined at baseline and at weekly intervals after centrifugation in a hematocrit capillary tube (Brand) for 10 min at full speed in a Haemofuge centrifuge (Heraeus). The number of reticulocytes in 5 µl blood was counted after staining with thiazol orange (Becton Dickinson) according to the manufacturer’s instructions by FACS analysis on a BD FACSCalibur system (Becton Dickinson). The efficacy of BAY 85-3934 (2.5 mg/kg, once-daily, oral) was also compared with that of rhEPO (25 IU/kg, 50 IU/kg, and 100 IU/kg, twice-weekly, s.c. injection). The time-course of induction of EPO mRNA expression and plasma EPO was determined at baseline and 0.5 h, 1 h, 2 h, 4 h, 6 h, and 8 h after oral administration of a single dose of BAY 85-3934 (5 mg/kg).
EPO was measured in plasma samples taken from rodents using a commercial ELISA kit (R&D Systems), according to the manufacturer’s instructions. Relative plasma EPO levels were given in picograms per milliliter. In cynomolgus monkeys, EPO was measured using a combination anti-human EPO ELISAs (R&D Systems and Roche Diagnostics), with human EPO as a standard. Values were given as units per liter. For determination of plasma prorenin from rats, a commercial ELISA (Oxford Biomedical Research) was used according to the manufacturer’s instructions. Hemoglobin in rodent blood samples was determined on a Cell-Dyn 3700 apparatus (Abbott Diagnostics). BAY 85-3934 plasma concentrations were determined after protein precipitation with acetonitrile/ammonium acetate using an internal standard, followed by separation using HPLC/mass spectrometry.
Total RNA was extracted from shock-frozen cell or tissue samples using the TRIzol method. Integrity of obtained RNA was checked on a Bioanalyzer (Agilent Technologies). For reverse transcription, 1 µg of total RNA was digested with RNase-free DNase I (Gibco) for 15 min at room temperature, and then reverse-transcribed using Promiscript (Promega GmbH) in a total reaction volume of 40 µl according to the standard protocol of the supplier. After inactivation of the enzyme by heating to 65°C for 15 min, the obtained cDNA was diluted to a final volume of 150 µl with double-distilled water, and 4 µl used per PCR reaction. qRT-PCR, including normalization of raw data to cytosolic β-actin, was carried out as described previously. The resulting expression is given in arbitrary units.

T1 sequence (Q9GZT9 whole entry): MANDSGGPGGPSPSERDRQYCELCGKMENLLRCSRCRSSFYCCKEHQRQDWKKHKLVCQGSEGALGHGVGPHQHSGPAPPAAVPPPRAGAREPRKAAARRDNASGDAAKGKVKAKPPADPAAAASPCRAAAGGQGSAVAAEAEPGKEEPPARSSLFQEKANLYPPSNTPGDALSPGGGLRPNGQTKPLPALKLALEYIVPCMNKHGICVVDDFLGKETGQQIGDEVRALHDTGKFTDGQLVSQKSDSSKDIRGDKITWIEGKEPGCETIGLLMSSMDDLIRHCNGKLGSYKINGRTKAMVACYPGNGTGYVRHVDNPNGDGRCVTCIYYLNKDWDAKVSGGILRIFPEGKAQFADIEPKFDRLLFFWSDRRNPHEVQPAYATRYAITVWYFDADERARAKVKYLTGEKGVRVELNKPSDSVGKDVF

SMILES: O=c1c(-n2ccnn2)c[nH]n1-c1cc(N2CCOCC2)ncn1 [BAY 85-3934, 2-[6-(morpholin-4-yl)pyrimidin-4-yl]-4-(1H-1,2,3-triazol-1-yl)-1,2-dihydro-3H-pyrazol-3-one]
- IC50 ([1]; 20 µM 2-oxoglutarate, 10 µM Fe2+, 2 mM ascorbate): 0.28 µM
- increase of potency on lowering 2-oxoglutarate ([1]; 2-oxoglutarate lowered from 20 µM to 0.3 µM (Fig. 1A)): up to 10 fold
- alteration of potency on varying Fe2+ and ascorbate ([1]; Fe2+ and ascorbate varied by factors of 30 and 200 (Fig. 1B, C)): ≤ 2 fold
- induction threshold of detectable HIF ([2]; A549 cells): 2.5 µM
- induction threshold of detectable HIF ([2]; HeLa cells): 0.25 µM
- induction threshold of detectable HIF ([2]; Hep3B cells): 0.5 µM
- induction threshold of HIF (summary in discussion) ([2]; human cell lines): below 1 µM
- luciferase activity at high Fe2+ in the culture medium ([3]; Fe2+ 50 µM): not altered
- EC50 ([3]; Homo sapiens, A549, 6 h incubation, n = 4, read-out: mean (± SD) EC50 of luciferase reporter induction): 8.4 ± 0.7 µM
- time of maximum EPO plasma concentration ([4]; 5 mg/kg oral, single dose): 6 h
- time of peak kidney EPO mRNA expression ([4]; 5 mg/kg oral, single dose): 2 h
- kidney mRNA induction of the other genes examined (moderate or absent) ([4]; 5 mg/kg single dose): less than 2 fold
- time of peak mRNA levels of HMOX-1, IGFBP-1, adrenomedullin, ANGPTL-4 ([4]; 5 mg/kg single dose, kidney): 2 h
- kidney ANGPTL-4 mRNA induction factor ([4]; 5 mg/kg single dose, p<0.01): 3.8 fold
- kidney HMOX-1 mRNA induction factor ([4]; 5 mg/kg single dose, p<0.01): 3.2 fold
- kidney adrenomedullin mRNA induction factor ([4]; 5 mg/kg single dose, p<0.01): 2.3 fold
- kidney insulin-like growth factor binding protein-1 mRNA induction factor ([4]; 5 mg/kg single dose, p<0.01): 2.2 fold
- kidney EPO mRNA induction over baseline ([4]; 5 mg/kg single dose, peak at 2 h): about 50 fold
